The values that follow come from ChEMBL document CHEMBL1121775, “Synthesis and antimalarial effects of N2-aryl-N4-[(dialkylamino)alkyl]- and N4-aryl-N2-[(dialkylamino)alkyl]-2,4-quinazolinediamines” (J Med Chem, 1981).

For data set [1], the system named is Mus musculus. In words: (§1) Number of toxic deaths at a dose of 640 mg/kg. In kind it is toxicity, organism-based. Set-up: dose 640 mg/kg. To be noted: in vivo.
Data set [2] is described as follows: The ratio of SD90 of the quinine hydrochloride, to the SD90 of the test substance for the Dose of 50 mg/kg. In kind it is functional.
In data set [3] the test system is Plasmodium berghei. In words: Antimalarial effect against trophozoite-induced Plasmodium berghei in mice (Mus musculus) at 160 mg/kg subcutaneous dose. Type of data set: functional.
Data set [4] deals with Mus musculus. The data set is described as §1. In kind it is functional.
For data set [5], the system named is Plasmodium berghei. As to the kind of experiment: Antimalarial effect against trophozoite-induced Plasmodium berghei in mice (Mus musculus) after 20 mg/kg subcutaneous dose. Type of data set: functional.
The test system of data set [6] is Plasmodium berghei. In words: Antimalarial effect against trophozoite-induced Plasmodium berghei in mice (Mus musculus) at 640 mg/kg subcutaneous dose. To be noted: 640 mg/kg. Type of data set: functional.
In data set [7] the test system is Plasmodium berghei. As to the kind of experiment: Antimalarial effect against trophozoite-induced Plasmodium berghei in mice (Mus musculus) at 320 mg/kg subcutaneous dose. Type of data set: functional.
Data set [8] deals with Plasmodium berghei. As to the kind of experiment: Antimalarial activity against trophozoite-induced Plasmodium berghei in mice (Mus musculus). In kind it is functional.
In data set [9] the test system is Plasmodium berghei. In words: Antimalarial effect against trophozoite-induced Plasmodium berghei in mice (Mus musculus) at 80 mg/kg subcutaneous dose. In kind it is functional.
Data set [10] has as its system Plasmodium berghei. In words: Antimalarial effect against trophozoite-induced Plasmodium berghei in mice (Mus musculus) after 40 mg/kg subcutaneous dose. Type of data set: functional.
In data set [11] the test system is Mus musculus. As to the kind of experiment: Number of mice cured at a dose of 640 mg/kg sc. Type of data set: functional. To be noted: route subcutaneous, 640 mg/kg.
For data set [12], the system named is Mus musculus. In words: Number of mice cured at a subcutaneous dose of 320 mg/kg. To be noted: 320 mg/kg. Type of data set: functional.
For data set [13], the system named is Mus musculus. In words: Number of mice cured at a dose of 40 mg/kg sc. In kind it is functional. To be noted: route subcutaneous.
The subject of data set [14] is Mus musculus. In words: Number of mice cured at a subcutaneous dose of 160 mg/kg. In kind it is functional.
Data set [15] is described as follows: The ratio of SD90 of the quinine hydrochloride, to the SD90 of the test substance for the Dose of 0.28 mg/kg. Type of data set: functional.
Data set [16] deals with Mus musculus. As to the kind of experiment: Number of mice cured at a dose of 80 mg/kg sc. Type of data set: functional. To be noted: route subcutaneous.
A short description of data set [17]: The ratio of SD90 of the quinine hydrochloride, to the SD90 of the test substance for the Dose of >30 mg/kg. In kind it is functional.
Data set [18] concerns Mus musculus. As to the kind of experiment: Antimalarial effect against trophozoite-induced Plasmodium berghei in mice (Mus musculus) at dosage of 80 mg/kg after subcutaneous administration; No. of mice (Mus musculus) surviving after 60 days 1. Type of data set: functional.
Data set [19] has as its system Mus musculus. In words: Antimalarial effect against trophozoite-induced Plasmodium berghei in mice (Mus musculus) at dosage of 80 mg/kg after subcutaneous administration. In kind it is functional.
The subject of data set [20] is Mus musculus. As to the kind of experiment: Antimalarial effect against trophozoite induced Plasmodium berghei in mice (Mus musculus) at dosage of 160 mg/kg after subcutaneous administration; No. of mice (Mus musculus) surviving after 60 days 1. Type of data set: functional.
Data set [21] deals with Plasmodium berghei. As to the kind of experiment: Antimalarial activity against trophozoite-induced Plasmodium berghei in mice (Mus musculus) at 160 mg/kg subcutaneous dose. Type of data set: functional. To be noted: 160 mg/kg.
The test system of data set [22] is Mus musculus. In words: Number of mice cured at a dose of 320 mg/kg sc. In kind it is functional. To be noted: route subcutaneous.
Data set [23] is described as follows: (§2) The ratio of SD90 of the quinine hydrochloride, to the SD90 of the test substance for the Dose of 8.5 mg/kg. In kind it is functional.
In data set [24] the test system is Mus musculus. The data set is described as §2. In kind it is functional.

Values joined by “and” are separate entries in the source; they are usually repeats but may differ in a detail not shown here. Identical values can stand only once. Where only a bound is given, the exact number is not on record here.

On to `CCN(CC)CCNc1nc(Nc2ccc(N3CCN(C)CC3)cc2)nc2ccccc12`, for which the “No. of toxic deaths” value in the data set with Mus musculus [1] and in the data set on Mus musculus [4] was 3 each time. The Ratio in data set [2] was found to be 1.5. The MST is 4.8 days and 4.2 days with Plasmodium berghei [3] (160 mg/kg); 0.2 days with Plasmodium berghei [5]; 6.8 days and 6.3 days with Plasmodium berghei [6]; 5.2 days in the data set on Plasmodium berghei [7]; 3.4 days with Plasmodium berghei [9]; 1 days and 0.8 days in the data set on Plasmodium berghei [10] (40 mg/kg). Moreover, the SD90 with Plasmodium berghei [8] stood at 50 mg/kg/day.

Regarding `CCc1nc(N)nc(N)c1-c1ccc(Cl)cc1` [PYRIMETHAMINE], the No. of survivals in the data set with Mus musculus [11] is 1 and 2; with Mus musculus [12] it was 2 and 3; in the data set on Mus musculus [13], 1; in the data set with Mus musculus [14], 5; in the data set on Mus musculus [16], 3. In addition, the MST in the data set with Plasmodium berghei [5] amounted to 7.7 days. Also, the SD90 with Plasmodium berghei [8] is 0.28 mg/kg/day. For the same molecule, the Ratio in [15] is recorded as 270.

Turning to `CCOc1ccc(Nc2nc(NCCN(CC)CC)c3ccc(Cl)cc3n2)cc1CN(CC)CC`, in [17], the Ratio was under 2.5. Moreover, the “No. of toxic deaths” value in the data set with Mus musculus [1] is given as 5. Further, the MST in the data set on Plasmodium berghei [3] came out at 0.8 days; with Plasmodium berghei [10] it was 0.6 days. Further, the SD90 in the data set on Plasmodium berghei [8] was over 30 mg/kg/day.

Turning to `CCN(CC)C1CCC(Nc2nc(Nc3ccc(Cl)c(Cl)c3)nc3ccccc23)CC1` (stereo not given), the MST in the data set with Mus musculus [18] was 10.4 days; with Mus musculus [19], 10.4 days; with Mus musculus [20] it was 13.7 days; in the data set with Plasmodium berghei [5], 0.9 days; in the data set with Plasmodium berghei [7], 22.9 days; in the data set with Plasmodium berghei [21], 13.9 days and 13.7 days. Besides, in the data set with Plasmodium berghei [10] (40 mg/kg), the MST is 10.1 days and 10.5 days. This molecule also registered an SD90 in the data set with Plasmodium berghei [8] of 8.5 mg/kg/day. The molecule further gave a No. of survivals in the data set with Mus musculus [14] of 1. Moreover, the No. of cured in the data set with Mus musculus [22] stood at 5. Moreover, the Ratio (in data set [23]; in the data set on Mus musculus [24]) was 8.8 each time.
